Reference: paper PMC9177545, “3-oxo-C12:2-HSL, quorum sensing molecule from human intestinal microbiota, inhibits pro-inflammatory pathways in immune cells via bitter taste receptors” (Scientific Reports, 2022)

Legend:
STAT3 = STAT3 phosphorylation by Wes capillary electrophoresis in activated RAW264.7 macrophages; format: cell-based, murine; settings: 50 µM, 2 h, LPS and IFNγ stimulated
Protocol: (§1) In RAW264.7 cells, inflammation was triggered with LPS (10 ng/mL, Sigma) and IFNγ (10 U/mL, R&Dsystems) for 2 h or 6 h, depending on the experiments. PBMC were exposed to LPS (10 ng/mL) and AHL for 24 h. For TAS2R38 inhibition experiments, cells were exposed to TAS2R38 allosteric inhibitor probenecid (1 mM, Sigma) for one hour before adding AHLs and the inflammatory cocktail, without changing the media.
RAW264.7 cells were scraped in lysis buffer (20 mM Tris- HCl, pH 7.4, 5 mM EDTA, 0.15 M NaCl, 1% Triton X-100, 0.5% sodium deoxycholate) supplemented with protease inhibitor cocktail (Complete Mini; Roche, Boulogne-Billancourt, France) and phosphatase inhibitor cocktail (PhosSTOP, Sigma-Aldrich). Protein concentrations were determined using the BC Assay (Uptima/Interchim). Wes™ analyses (capillary electrophoresis system; ProteinSimple, San Jose, CA) were performed according to the manufacturer’s recommendations, and adequate protein concentrations and antibody dilutions were determined in preliminary assays to allow optimal quantitative conditions. […] Data were analysed using Compass for SW3.1 software (ProteinSimple).

TAS2R138 = target: T1, TAS2R138 (Mus musculus, UniProt Q7TQA6); assay: TAS2R38/TAS2R138 inhibition experiment: TNFα secretion of RAW264.7 cells pre-treated with probenecid; format: cell-based; settings: pre-treated with 1 mM probenecid one hour, then LPS, IFNγ and AHL six hours
T1 construct: endogenous in cells; host or cells: RAW264.7 murine macrophages (ATCC)
T1 sequence (Q7TQA6 1-331): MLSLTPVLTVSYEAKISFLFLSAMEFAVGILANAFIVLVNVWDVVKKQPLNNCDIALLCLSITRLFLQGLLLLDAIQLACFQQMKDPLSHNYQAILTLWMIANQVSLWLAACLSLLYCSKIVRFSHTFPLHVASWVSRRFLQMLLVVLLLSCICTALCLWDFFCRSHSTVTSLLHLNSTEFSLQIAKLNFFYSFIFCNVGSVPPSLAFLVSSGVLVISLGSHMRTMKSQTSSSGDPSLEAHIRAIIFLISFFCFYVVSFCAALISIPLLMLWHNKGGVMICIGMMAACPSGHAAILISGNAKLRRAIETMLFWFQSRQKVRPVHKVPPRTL
Protocol: as §1
At the end of cell treatment, the medium was centrifuged at 300g for 5 min at 4 °C. Supernatant was frozen at − 80 °C until ELISA assays. TNFα and IL-1β ELISA kits were purchased from R&D systems and performed according to the manufacturer’s instructions. Briefly, plates were coated with a capture antibody and incubated overnight. Wells were blocked using 1% bovine serum albumin-PBS solution (Sigma), then exposed to cell supernatants at room temperature for two hours. Wells were washed and incubated with the detection antibody for an additional two hours. After thorough washing, Streptavidin-HRP solution was added for 20 min. Wells were washed, then incubated with TMB (Biolegend) solution for 20 min and the reaction was stopped using 1 M H2SO4. Absorbance was measured by a spectrometer (FLUOstar Omega; BMG Labtech) at 450 nm and the absorbance at 540 nm was subtracted.

PBMC = assay: TNFα secretion by ELISA in PBMC stimulated with LPS; format: cell-based, human; settings: LPS 10 ng/mL, 24 h, dose-dependent between 25 to 100 µM
Protocol: Peripheral Blood Mononuclear Cells (PBMC) were extracted from whole blood of anonymous donors and collected by Etablissement Français du Sang of Paris, France.
PBMC were cultured in Roswell Park Memorial Institute medium (ThermoFisher Scientific) with 10% heat-inactivated fetal calf serum, 1% L-glutamine, 1% non-essential amino acids, 1% sodium pyruvate, penicillin (100 IU/mL), and streptomycin (100 µg/mL). Peripheral blood was harvested in EDTA tubes, blood was diluted with PBS 1:1, layered over Histopaque-1077® (Sigma) and centrifuged for 20 min at 400g at room temperature. Extracted PBMC were washed twice with sterile PBS then centrifuged at 300g for 5 min and resuspended in complete medium. For experiments, cells were seeded at 300,000 cells per well in 200 µL of medium in 96-well plates (ThermoFisher Scientific).
Cells were exposed to 3-oxo-C12:2-HSL (synthesized as previously described[17]) or DMSO 0.1% as a control for different durations depending on the experiment, in the presence of the lactonase inhibitor 2-hydroxyquinoline (100 µM, Sigma-Aldrich), in order to limit the hydrolysis of the AHL lactone ring, as described previously[17],[18]. […]
At the end of cell treatment, the medium was centrifuged at 300g for 5 min at 4 °C. […] Absorbance was measured by a spectrometer (FLUOstar Omega; BMG Labtech) at 450 nm and the absorbance at 540 nm was subtracted.

3-oxo-C12:2-HSL
phosphorylation level of STAT3 vs activated cells without AHL (STAT3): not significantly altered
anti-inflammatory effect (TNFα secretion) when TAS2R138 is inhibited (TAS2R138): abolished
TNFα secretion (PBMC): strongly decreased
